Assay [1] addresses T1, UT-B (Rattus norvegicus, UniProt P97689).
T1 construct: using erythrocytes, which originally express UT-B; endogenous in cells; host or cells: SD rat erythrocytes (vein blood)
T1 sequence (P97689 1-384): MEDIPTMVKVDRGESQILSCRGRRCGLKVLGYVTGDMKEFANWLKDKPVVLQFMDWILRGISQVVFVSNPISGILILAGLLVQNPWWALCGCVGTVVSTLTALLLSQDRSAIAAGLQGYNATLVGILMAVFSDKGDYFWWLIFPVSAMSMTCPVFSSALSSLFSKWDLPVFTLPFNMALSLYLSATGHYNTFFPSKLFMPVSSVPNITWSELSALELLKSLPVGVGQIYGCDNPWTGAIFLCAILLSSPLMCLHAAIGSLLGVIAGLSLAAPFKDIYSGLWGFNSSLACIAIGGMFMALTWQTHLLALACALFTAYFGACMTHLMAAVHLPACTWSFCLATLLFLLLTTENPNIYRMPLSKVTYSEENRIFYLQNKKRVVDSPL
Briefly: erythrocyte osmotic lysis assay, rat erythrocytes. The format is cell-based. The following applies: mean ± s.e.m., n = 3. On the procedure:
(§1) Vein blood was collected from humans, SD rats, wild-type mice or UT-B-null mice as described previously.
(§2) High-throughput screening assay was performed for identification of UT-B inhibitors using erythrocytes, which originally express UT-B as described previously. Erythrocytes were diluted to a hematocrit value of 2% in hyperosmolar PBS containing 1.25 M acetamide and 5 mM glucose. Erythrocyte suspensions were preserved at room temperature for 2 h by periodic pipette mixture. Then, 99 μl erythrocyte suspension from a reservoir was added to each well of a 96-well round-bottom microplate, to which test compounds were added (1 μl, 10 μM final compound concentration, 1% final DMSO concentration). After 6 min of incubation, 20 μl of the erythrocyte suspension was added rapidly to each well of a 96-well black-walled plate containing 180 μl isomolar buffer (PBS containing 1% DMSO) in each well. Erythrocyte lysis was quantified from a single time point measure of absorbance at 710 nm wavelength with a plate reader (BioTek)[27].
(§3) The percentage of erythrocyte lysis in each test well was calculated using control values from the same plate as: % lysis = 100%. (Aneg-Atest)/(Aneg-Apos), where Atest is the absorbance value from a test well. Nonspecific UT-B inhibitor phloretin (Sigma-Aldrich, 700 μM final concentration) was added as an additional positive control.

Assay [2] concerns the target T2, UT-B (Homo sapiens, UniProt Q13336).
T2 construct: using erythrocytes, which originally express UT-B; endogenous in cells; host or cells: human erythrocytes (vein blood)
T2 sequence (Q13336 1-389): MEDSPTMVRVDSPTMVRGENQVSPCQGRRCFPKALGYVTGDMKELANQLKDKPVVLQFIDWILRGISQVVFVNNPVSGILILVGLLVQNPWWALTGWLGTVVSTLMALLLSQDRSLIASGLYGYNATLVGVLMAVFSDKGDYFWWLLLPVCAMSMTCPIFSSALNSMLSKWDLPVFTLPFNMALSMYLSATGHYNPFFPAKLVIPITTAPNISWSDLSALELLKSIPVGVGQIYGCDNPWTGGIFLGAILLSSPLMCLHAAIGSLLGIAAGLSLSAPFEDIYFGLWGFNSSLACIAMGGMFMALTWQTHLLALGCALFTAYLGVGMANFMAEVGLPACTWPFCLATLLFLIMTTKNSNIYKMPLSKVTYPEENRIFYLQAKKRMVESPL
In words: erythrocyte osmotic lysis assay, human erythrocytes. The following applies: mean ± s.e.m., n = 3. The assay is classed as cell-based. On the procedure:
as §1, §2, §3

Assay [3] addresses T3, UT-B (Mus musculus, UniProt Q8VHL0).
T3 construct: using erythrocytes, which originally express UT-B; endogenous in cells; host or cells: wild-type mouse erythrocytes (vein blood)
T3 sequence (Q8VHL0 1-384): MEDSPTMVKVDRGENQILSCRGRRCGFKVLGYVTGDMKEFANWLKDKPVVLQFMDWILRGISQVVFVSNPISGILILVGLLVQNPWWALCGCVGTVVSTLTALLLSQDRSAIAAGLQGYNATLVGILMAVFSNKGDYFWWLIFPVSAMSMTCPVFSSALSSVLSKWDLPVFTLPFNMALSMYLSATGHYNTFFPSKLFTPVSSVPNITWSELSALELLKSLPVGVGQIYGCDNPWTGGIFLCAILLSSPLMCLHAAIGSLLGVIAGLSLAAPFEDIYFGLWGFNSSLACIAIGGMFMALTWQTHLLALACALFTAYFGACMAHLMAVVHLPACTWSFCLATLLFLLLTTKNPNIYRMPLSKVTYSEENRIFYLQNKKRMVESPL
Briefly: erythrocyte osmotic lysis assay, mouse erythrocytes. The assay is classed as cell-based. The following applies: mean ± s.e.m., n = 3. On the procedure:
as §1, §2, §3

On the set-up of assay [4]: method as in PMID 23486518. The following applies: cited from earlier work.
Assay [5] addresses T1, UT-B. Further details: method as in PMID 23486518. The following applies: cited from earlier work.
The target in assay [6] is T2, UT-B. Further details: method as in PMID 23486518. The following applies: cited from earlier work.
Assay [7] deals with UT-B. Further details: method as in Ren et al., under review. The following applies: pIC50 = -log(IC50) + 6; analogues of PU21; ref Ren et al., under review; cited from earlier work.
Assay [8] has as its target T3, UT-B. Further details: method as in PMID 23486518. The following applies: cited from earlier work.
Assay [9] relates to UT-B. Further details: method as in PMID 23486518. The following applies: rabbit; cited from earlier work.

In general, IC50 refers to the midpoint of a concentration-inhibition curve. A low value points to greater potency. In the case of `COc1ccc2nc3sc(C(C)=O)c(N)c3cc2c1` [PU21, 1-(3-amino-6-methoxythieno[2,3-b]quinolin-2-yl)ethanone], the IC50 was 2.62 ± 0.12 µM at UT-B [1], 3.78 ± 0.48 µM on UT-B [2] and 4.81 ± 0.4 µM against UT-B [3].
As to `CCN(Cc1ccccc1)[C@H](c1cc2c(C)cc(C)cc2[nH]c1=O)c1nnnn1C[C@@H]1CCCO1` [PU168, 3-((R)-(benzyl(ethyl)amino)(1-(((S)-tetrahydrofuran-2-yl)methyl)-1H-tetrazol-5-yl)methyl)-5,7-dimethylquinolin-2(1H)-one], the IC50 is greater than 10 µM on UT-B [1], 0.2 ± 0.03 µM on UT-B [2] and greater than 10 µM against UT-B [3].
As for `Cc1nc2ccc(NC(=O)c3ccco3)cc2c(=O)n1Cc1ccc(Cl)cc1` [PU468, N-(3-(4-chlorobenzyl)-2-methyl-4-oxo-3,4-dihydroquinazolin-6-yl)furan-2-carboxamide], the IC50 was 3.18 ± 0.24 µM at UT-B [1], 5.63 ± 0.82 µM on UT-B [2] and 4.13 ± 0.33 µM against UT-B [3].
As for `Cn1c(=O)c2c(nc(SCC(=O)Nc3cccc(O)c3)n2Cc2ccccc2)n(C)c1=O` [PU474, 2-((7-benzyl-1,3-dimethyl-2,6-dioxo-2,3,6,7-tetrahydro-1H-purin-8-yl)thio)-N-(3-hydroxyphenyl)acetamide], the IC50 was greater than 10 µM on UT-B [1], 0.28 ± 0.01 µM against UT-B [2] and greater than 10 µM against UT-B [3].
In general, pIC50 refers to −log10 of the IC50, conventionally taken in molar units. Consider `CC(=O)c1sc2nc3ccc(C)cc3cc2c1N` [PU-14], for which the “diuresis activity in vivo” value in assay [4] is “pharmacological diuresis activity”. In addition, the “UT-B inhibition activity in vitro” value at UT-B [5], on UT-B [6], at UT-B [8] and in the assay with UT-B [9] was “potential inhibition activity” each time. For the same compound, on UT-B [7], the pIC50 is listed as 5.454.
